pEC50: −log10 of the molar value.

As a reminder, the pEC50 is −log10 of the EC50, conventionally taken in molar units. Read a high pEC50 as a small EC50.

The target in the assay is T1, WT/R232 STING protein (Homo sapiens, UniProt Q86WV6, H232R).
T1 construct: host or cells: HEK293T
T1 sequence (Q86WV6 whole entry H232R): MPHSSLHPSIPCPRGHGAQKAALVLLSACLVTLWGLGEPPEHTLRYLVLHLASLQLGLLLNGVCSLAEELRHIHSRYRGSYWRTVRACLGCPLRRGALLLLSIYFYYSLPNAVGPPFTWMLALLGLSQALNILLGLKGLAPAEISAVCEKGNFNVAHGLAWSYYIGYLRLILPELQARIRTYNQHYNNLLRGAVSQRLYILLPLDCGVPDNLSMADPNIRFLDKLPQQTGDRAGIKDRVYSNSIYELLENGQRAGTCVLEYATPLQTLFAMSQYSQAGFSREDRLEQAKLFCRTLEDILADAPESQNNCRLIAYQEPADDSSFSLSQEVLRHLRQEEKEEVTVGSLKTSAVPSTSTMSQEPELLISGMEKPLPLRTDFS
The experiment in a line: Luciferase reporter assay in HEK293T-hSTING-Luciferase cells (R232). The conditions noted are these: 20 hr stimulation, EC50 range. It is filed as cell-based. A digest of the protocol:
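Clonal HEK293T cells stably expressing human STING R232 plus an ISRE/ISG54-driven secreted luciferase reporter, stimulated with compounds for 20 hr. Luciferase in supernatant read by luminescence; activity given as fold-induction over baseline.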
In the case of `Cc1cccc(C)c1CN1C(=O)C(C)(C)c2ccc(C(=O)NCc3c(F)cc(F)cc3F)cc21` [Example 110, 1-(2,6-dimethylbenzyl)-3,3-dimethyl-2-oxo-N-(2,4,6-trifluorobenzyl)indoline-6-carboxamide], the pEC50 was 5.00 to 6.00.

Consider `Cc1nnc(CNC(=O)c2ccc3c(c2)N(Cc2cc(F)cc(F)c2)C(=O)C3(C)C)o1` [Example 29, 1-(3,5-difluorobenzyl)-3,3-dimethyl-N-((5-methyl-1,3,4-oxadiazol-2-yl)methyl)-2-oxoindoline-6-carboxamide], for which the pEC50 was less than 5.00.

As to `CC1(C)C(=O)N(Cc2cc(F)cc(F)c2)c2cc(C(=O)NCc3ccc(F)cc3)cnc21` [Example 198, 1-(3,5-difluorobenzyl)-N-(4-fluorobenzyl)-3,3-dimethyl-2-oxo-2,3-dihydro-1H-pyrrolo[3,2-b]pyridine-6-carboxamide], the pEC50 is 5.00 to 6.00.

As to `Cc1nn(C)cc1CN1C(=O)C(C)(C)c2ccc(C(=O)NCc3c(F)cc(F)cc3F)cc21` [Example 80, 1-((1,3-dimethyl-1H-pyrazol-4-yl)methyl)-3,3-dimethyl-2-oxo-N-(2,4,6-trifluorobenzyl)indoline-6-carboxamide], the pEC50 is less than 5.00.

`Cc1nc(CN2C(=O)C(C)(C)c3ccc(C(=O)NCc4c(F)cc(F)cc4F)cc32)co1` [Example 83, 3,3-dimethyl-1-((2-methyloxazol-4-yl)methyl)-2-oxo-N-(2,4,6-trifluorobenzyl)indoline-6-carboxamide] gave a pEC50 of less than 5.00.

Compound `CC1(CO)C(=O)N(Cc2cc(F)cc(F)c2)c2cc(C(=O)NCc3ccc(F)cc3F)ccc21` (stereo not shown) [Example 176, N-(2,4-difluorobenzyl)-1-(3,5-difluorobenzyl)-3-(hydroxymethyl)-3-methyl-2-oxoindoline-6-carboxamide] gave a pEC50 of less than 5.00.

Compound `Cc1ccc(CNC(=O)c2ccc3c(c2)N(CCc2ccccc2)C(=O)C3(C)C)o1` [Example 59, 3,3-dimethyl-N-((5-methylfuran-2-yl)methyl)-2-oxo-1-phenethylindoline-6-carboxamide] showed a pEC50 of 5.00 to 6.00.

On to `CC(C)C1(O)C(=O)N(Cc2c(F)cccc2Cl)c2cc(C(=O)NCc3c(F)cc(F)cc3F)ccc21` (stereo not shown) [Example 159, 1-(2-chloro-6-fluorobenzyl)-3-hydroxy-3-isopropyl-2-oxo-N-(2,4,6-trifluorobenzyl)indoline-6-carboxamide], for which the pEC50 was less than 5.00.

As to `Cc1ncc(CN2C(=O)C(C)(C)c3ccc(C(=O)NCc4c(F)cc(F)cc4F)cc32)o1` [Example 128, 3,3-dimethyl-1-((2-methyloxazol-5-yl)methyl)-2-oxo-N-(2,4,6-trifluorobenzyl)indoline-6-carboxamide], the pEC50 was less than 5.00.

Turning to `CC1(CCN2CCOCC2)C(=O)N(Cc2cc(F)cc(F)c2)c2cc(C(=O)NCc3c(F)cc(F)cc3F)ccc21` (stereo not shown) [Example 171, 1-(3,5-difluorobenzyl)-3-methyl-3-(2-morpholinoethyl)-2-oxo-N-(2,4,6-trifluorobenzyl)indoline-6-carboxamide], the pEC50 is less than 5.00.

As for `CC1(C)C(=O)N(Cc2c(F)cc(O)cc2F)c2cc(C(=O)NCc3c(F)cc(F)cc3F)ccc21` [Example 65, 1-(2,6-difluoro-4-hydroxybenzyl)-3,3-dimethyl-2-oxo-N-(2,4,6-trifluorobenzyl)indoline-6-carboxamide], the pEC50 was no less than 6.00.

In the case of `CC1(C)C(=O)N(Cc2cc(F)cc(F)c2)c2nc(C(=O)NCCc3c(F)cc(F)cc3F)ccc21` [Example 190, 1-(3,5-difluorobenzyl)-3,3-dimethyl-2-oxo-N-(2,4,6-trifluorophenethyl)-2,3-dihydro-1H-pyrrolo[2,3-b]pyridine-6-carboxamide], the pEC50 is less than 5.00.

Compound `CC1(C)C(=O)N(Cc2cc(F)cc(F)c2)c2cc(C(=O)NCC3CCC(F)(F)CC3)ccc21` [Example 43, 1-(3,5-difluorobenzyl)-N-((4,4-difluorocyclohexyl)methyl)-3,3-dimethyl-2-oxoindoline-6-carboxamide] had a pEC50 of less than 5.00.

Consider `CC1(C)C(=O)N(Cc2cccc(C(N)=O)c2)c2cc(C(=O)NCc3ccc(F)cc3F)ccc21` [Example 38, 1-(3-carbamoylbenzyl)-N-(2,4-difluorobenzyl)-3,3-dimethyl-2-oxoindoline-6-carboxamide], for which the pEC50 was 5.00 to 6.00.

Consider `CC1(C)C(=O)N(Cc2ccnc(F)c2)c2cc(C(=O)NCc3c(F)cc(F)cc3F)ccc21` [Example 49, 1-((2-fluoropyridin-4-yl)methyl)-3,3-dimethyl-2-oxo-N-(2,4,6-trifluorobenzyl)indoline-6-carboxamide], for which the pEC50 is 5.00 to 6.00.

With `Cc1ccc(CNC(=O)c2ccc3c(c2)N(Cc2ccc(F)c(F)c2)C(=O)C3(C)C)o1` [Example 122, 1-(3,4-difluorobenzyl)-3,3-dimethyl-N-((5-methylfuran-2-yl)methyl)-2-oxoindoline-6-carboxamide], the pEC50 was 5.00 to 6.00.

`CC1(C)C(=O)N(Cc2cccc3c2OC(F)(F)O3)c2cc(C(=O)NCc3c(F)cc(F)cc3F)ccc21` [Example 105, 1-((2,2-difluorobenzo[d][1,3]dioxol-4-yl)methyl)-3,3-dimethyl-2-oxo-N-(2,4,6-trifluorobenzyl)indoline-6-carboxamide]: the pEC50 was 5.00 to 6.00.

As for `CC1(C)C(=O)N(Cc2c(F)cccc2Cl)c2cc(C(=O)NCc3ccc4c(c3)OCO4)ccc21` [Example 86, N-(benzo[d][1,3]dioxol-5-ylmethyl)-1-(2-chloro-6-fluorobenzyl)-3,3-dimethyl-2-oxoindoline-6-carboxamide], the pEC50 was 5.00 to 6.00.

In turn, `CC1(C)C(=O)N(Cc2c(F)cccc2Cl)c2cc(C(=O)NCc3cccs3)ccc21` [Example 7, 1-(2-chloro-6-fluorobenzyl)-3,3-dimethyl-2-oxo-N-(thiophen-2-ylmethyl)indoline-6-carboxamide] gave a pEC50 of 5.00 to 6.00.

In the case of `COc1ccc(F)c(CN2C(=O)C(C)(C)c3ccc(C(=O)NCc4c(F)cc(F)cc4F)cc32)c1Cl` [Example 66, 1-(2-chloro-6-fluoro-3-methoxybenzyl)-3,3-dimethyl-2-oxo-N-(2,4,6-trifluorobenzyl)indoline-6-carboxamide], the pEC50 is no less than 6.00.

Regarding `CC1(C)C(=O)N(Cc2cccc(C(N)=O)c2F)c2cc(C(=O)NCc3c(F)cc(F)cc3F)ccc21` [Example 79, 1-(3-carbamoyl-2-fluorobenzyl)-3,3-dimethyl-2-oxo-N-(2,4,6-trifluorobenzyl)indoline-6-carboxamide], the pEC50 was 5.00 to 6.00.

The compound `Cn1ncc2cccc(CN3C(=O)C(C)(C)c4ccc(C(=O)NCc5c(F)cc(F)cc5F)cc43)c21` [Example 96, 3,3-dimethyl-1-((1-methyl-1H-indazol-7-yl)methyl)-2-oxo-N-(2,4,6-trifluorobenzyl)indoline-6-carboxamide] gave a pEC50 of 5.00 to 6.00.

`O=C(NCc1c(F)cc(F)cc1F)c1ccc2c(c1)N(Cc1c(F)cccc1Cl)C(=O)C2=O` [Example 142, 1-(2-Chloro-6-fluorobenzyl)-2,3-dioxo-N-(2,4,6-trifluorobenzyl)indoline-6-carboxamide] showed a pEC50 of less than 5.00.

`O=C(NCc1c(F)cc(F)cc1F)c1ccc2c(c1)N(Cc1cc(F)cc(F)c1)C(=O)C21CCCCC1` [Example 138]: the pEC50 is less than 5.00.

The compound `Cc1ncc(CNC(=O)c2ccc3c(c2)N(Cc2c(F)cccc2Cl)C(=O)C3(C)C)o1` [Example 31, 1-(2-chloro-6-fluorobenzyl)-3,3-dimethyl-N-((2-methyloxazol-5-yl)methyl)-2-oxoindoline-6-carboxamide] showed a pEC50 of less than 5.00.

With `CC1(CN)C(=O)N(Cc2cc(F)cc(F)c2)c2cc(C(=O)NCc3c(F)cc(F)cc3F)ccc21` (stereo not shown) [Example 172, 3-(aminomethyl)-1-(3,5-difluorobenzyl)-3-methyl-2-oxo-N-(2,4,6-trifluorobenzyl)indoline-6-carboxamide], the pEC50 was less than 5.00.

For `Cn1nccc1CN1C(=O)C(C)(C)c2ccc(C(=O)NCc3c(F)cc(F)cc3F)cc21` [Example 77, 3,3-dimethyl-1-((1-methyl-1H-pyrazol-5-yl)methyl)-2-oxo-N-(2,4,6-trifluorobenzyl)indoline-6-carboxamide], the pEC50 is 5.00 to 6.00.

`CC1(C)C(=O)N(Cc2ccncc2)c2nc(C(=O)NCc3c(F)cc(F)cc3F)ccc21` [Example 184, 3,3-dimethyl-2-oxo-1-(pyridin-4-ylmethyl)-N-(2,4,6-trifluorobenzyl)-2,3-dihydro-1H-pyrrolo[2,3-b]pyridine-6-carboxamide] gave a pEC50 of 5.00 to 6.00.

Consider `Cc1ccc(CNC(=O)c2ccc3c(n2)N(Cc2c(C)cccc2F)C(=O)C3(C)C)o1` [Example 195, 1-(2-fluoro-6-methylbenzyl)-3,3-dimethyl-N-((5-methylfuran-2-yl)methyl)-2-oxo-2,3-dihydro-1H-pyrrolo[2,3-b]pyridine-6-carboxamide], for which the pEC50 is 5.00 to 6.00.

With `Cc1ccc(CNC(=O)c2ccc3c(c2)N(CC(=O)c2ccccc2)C(=O)C3(C)C)o1` [Example 62, 3,3-dimethyl-N-((5-methylfuran-2-yl)methyl)-2-oxo-1-(2-oxo-2-phenylethyl)indoline-6-carboxamide], the pEC50 is less than 5.00.

Turning to `O=C(NCc1ccco1)c1ccc2c(c1)N(Cc1c(F)cccc1Cl)S(=O)(=O)C2` [Example 140, 1-(2-chloro-6-fluorobenzyl)-N-(furan-2-ylmethyl)-1,3-dihydrobenzo[c]isothiazole-6-carboxamide 2,2-dioxide], the pEC50 is less than 5.00.

The record behind these values is patent US20200172483A1, “HETEROCYCLIC SMALL MOLECULE MODULATORS OF HUMAN STING” (Curadev Pharma Limited, priority 2017, published 2020).
